Test results: patent US20230175022A1 (priority 2020, published 2023)

How the values were obtained:
S. cerevisiae [1] = experiment: Growth of S. cerevisiae strains in overlay/underlay candidates (OD600); format: cell-based, Saccharomyces cerevisiae; conditions: 20% (v/v) overlay/underlay; for toxicity to growth (OD600 as proxy for biomass growth): YP+2% (w/v) galactose or glucose, 96 well deepwell plates, production and non-production strains; for toxicity to growth (OD600), with glucose: YP+2% (w/v) glucose; for toxicity to growth (OD600), with galactose: YP+2% (w/v) galactose
Procedure: To test non-toxic organic overlays/underlays, different non-production background and production strains of S. cerevisiae (Table 1) were inoculated from colonies on YPD agar plates and grown for approximately 24 hours in 96 well deepwell plates containing 300 μL YP+2% (w/v) glucose at 30° C. with 950 rpm shaking (3 mm throw) and maintained at 85% humidity. These cultures were then used to inoculate 96 well deepwell plates containing 300 μL YP+2% (w/v) galactose (YP gal) or glucose (YP glu), with or without addition of 0.04% (w/v) hexanoic acid (HA) plus 20% (v/v) (60 μL) of different overlays/underlays or no organic phase, under the same conditions described for precultures. At three different times (specified in plots), biological triplicate cultures were sampled and optical density at 600 nm (0D600) was measured as a proxy for biomass growth on a SpectraMax plate reader, with dilution in water to allow measurements to be within the linear range of instrumental readings. Averaged OD600s across at least three biological replicates of each strain/overlay condition at each sampling time. Multiple sets of measurements were performed on large groups of overlay and underlay candidates in different batches.

[2] = Partitioning of olivetolic acid between organic overlay and aqueous culture phase (shake flask, HPLC); format: physicochemical; conditions: YP+2% galactose culture, not acidified
Procedure: Precultures of LSC3-2 and LSC3-18 were inoculated from YPD streak plates and grown in 30 mL of YP+2% (w/v) glucose in baffled 250 mL shake flasks for approximately 18 hours overnight at 30° C. with 200 rpm shaking. Baffled 250 mL shake flasks containing 30 mL of YP+2% (w/v) galactose, 5 mL of IPM or diethyl sebacate, and 0.04% (w/v) hexanoic acid, were inoculated with 1 mL of preculture and grown for at 30° C. with 200 rpm shaking. After 24 and 48 hours, samples of cell culture broth plus overlay were sampled into microcentrifuge tubes and stored at −20° C. at least overnight. Sample tubes were thawed and aqueous sample and overlay sample were pipetted into plates for HPLC analysis. Overlay samples were diluted 1:1 v/v with methanol in the HPLC plate prior to analysis.

S. cerevisiae [3] = experiment: Growth of S. cerevisiae strains in overlay/underlay candidates (OD600); format: cell-based, Saccharomyces cerevisiae; conditions: 1-10% (v/v), particularly 1-2.5% (v/v), in IPM and isopar M
[4] = Partitioning of divarinic acid and divarin into organic overlays (96 well deepwell plate, HPLC); format: physicochemical; conditions: Delft medium+CSM+2% glucose, 48 hours
Procedure: Several monoester and one diester overlay candidate were compared to IPM for production of divarinic acid and divarin. LSC3-13 precultures were inoculated from YPD streak plates and grown in 300 μL Delft medium+0.79 g/L complete supplement mixture (CSM) (ForMedium, Norfolk, UK)+2% (w/v) glucose in round-bottom square well 96 well deepwell plates for approximately 18 hours overnight at 30° C. with 950 rpm shaking in an Infors plate shaker. 96 well deepwell plate wells containing 300 μL of Delft medium+CSM+2% (w/v) glucose, 60 μL of different overlay solvents, and 0.08% (w/v) butyric acid, were inoculated with 10 μL of preculture and grown for 30° C. with 950 rpm shaking. After 48 hours, the aqueous layer and overlay were sampled on a Bravo automated liquid handling platform (Agilent) and samples from the aqueous and organic overlay phases were subjected to HPLC analysis to measure divarinic acid and divarin production.

Compound | toxicity to growth (OD600 as proxy for biomass growth) (S. cerevisiae [1]) | further results
2,2,4-trimethyl-1,3-pentanediol monoisobutyrate [Texanol] | inhibitory to growth | –
CCCCCCCCCCO [Decanol] | toxic to growth | –
CCCCOC(=O)CCCCCCCCC(=O)OCCCC [Dibutyl sebacate] | completely non-inhibitory to growth | –
CCCCCCCCCCCCCC(=O)OC(C)C [IPM, isopropyl myristate] | non-toxic | –
CCCCCCCC(=O)OC(C)C [Isopropyl octanoate] | moderately inhibitory but allowed for some growth | –
CCCCCc1cc(O)cc(O)c1C(=O)O [OA, olivetolic acid] | – | partitioning between overlay and aqueous phase ([2]; IPM overlay): partitioned between the IPM and aqueous phases; partitioning between overlay and aqueous phase ([2]; diethyl sebacate overlay): entirely partitioned into diethyl sebacate
CCCCCCCC(=O)OCC(COC(=O)CCCCCCC)OC(=O)CCCCCCC [Tricaprylin] | fairly toxic | toxicity to growth (OD600), with glucose (S. cerevisiae [1]): allowed some growth of all strains
CCCCCCCCCCCC(=O)OCCCC [butyl laurate] | non-toxic | –
CC(C)(C)OC(=O)CC(=O)OC(C)(C)C [di-cert-butyl malonate, Di-tert-butyl malonate] | – | toxicity to growth (OD600), with galactose (S. cerevisiae [1]): appearing toxic or to induce substantial lag; toxicity to growth (OD600), with glucose (S. cerevisiae [1]): supported growth of all strains; toxicity to growth of mixture in IPM or isopar M (S. cerevisiae [3]): much lower toxicity
CCCCOC(=O)CCCCC(=O)OCCCC [dibutyl adipate] | no apparent toxicity | –
CCOC(=O)C(CC)(CC)C(=O)OCC [diethyl diethylmalonate] | – | toxicity to growth (OD600), with galactose (S. cerevisiae [1]): substantial lag; toxicity to growth (OD600), with glucose (S. cerevisiae [1]): modest growth by most strains
CCOC(=O)CCCCCCCCC(=O)OCC [diethyl sebacate] | modest growth by most strains | –
CC(C)OC(=O)CCCCC(=O)OC(C)C [diisopropyl adipate] | Some growth was observed | –
CCCc1cc(O)cc(O)c1 [divarin, 1,3-dihydroxy-5-propylbenzene] | – | partitioning into monoester overlays compared with olivetolic acid and olivetol [4]: partition less effectively
CCCc1cc(O)cc(O)c1C(=O)O [divarinic acid, 2,4-dihydroxy-6-propylbenzoic acid] | – | partitioning into monoester overlays compared with olivetolic acid and olivetol [4]: partition less effectively
CCCCCCCCCCCC [dodecane] | Lack of toxicity | –
CCCCCCCCCC(=O)OCC [ethyl decanoate] | increasingly non-toxic | –
CCCCCCCCCCCC(=O)OCC [ethyl laurate] | non-toxic | –
CCCCCCCCCCCCCC(=O)OCC [ethyl myristate] | non-toxic | –
CCCCCCCCCCCCCCCC [hexadecane] | Lack of toxicity | –
CCCCCCOC(=O)CCCCC [hexyl hexanoate] | moderately non-toxic | –
CCCCCCCCCC(=O)OC [methyl decanoate] | moderately inhibitory to growth but still allowed for growth | –
CCCCCCCCCCCCCC(=O)OC [methyl myristate] | non-toxic | –
CCCCCCCCOC(C)=O [octyl acetate] | toxic | –
CCCCCCCC/C=C\CCCCCCCCO [oleyl alcohol] | supports robust growth | –
CCCCCCCCCCCCCC [tetradecane] | Lack of toxicity | –
